Test results reported in patent US20260263617A1, “DARATUMUMAB DRUG CONJUGATES AND PREPARATION THEREOF” (ZYDUS LIFESCIENCES LIMITED, priority 2023, published 2026).
Read-outs that look alike come from different tables or passages of the source.

Assays:
[1] = system: Daudi Burkitt lymphoma xenograft; test: Efficacy in Burkitt lymphoma xenograft disease model in SCID mice; assay type: in vivo; details: 5 mg/kg, I.V. route, single administration; dosed at mean tumor volume approximately 20-25 mm3; FIG. 4
Method: In present study, the therapeutic potential of novel Daratumumab-ADC has been evaluated in comparison to Daratumumab antibody only. Specifically to induce Burkitt lymphoma xenograft, Immunodeficient SCID mice were injected with Daudi cells (1 million cells/animal/200 μL volume, In 1:1 ratio of cell suspension & matrigel) in right flank region of animals. […] Here, in this study, Daratumumab-ADC & Daratumumab were compared head to head at a dose level of 5 mg/kg (I.V. route, Single administration).

[2] = system: Daudi (ATCC CCL-213, B Lymphoblast) cells; test: In-vitro cytotoxicity assay using Daudi cells (alamar blue); assay type: cell-based
Method: Daudi (ATCC CCL-213, B Lymphoblast) cells were seeded on a 96 well black clear bottom plate (Costar 3603). The cell line was chosen as it is known to express the CD38 receptor. The cells were treated with different concentrations of daratumumab-MMAE conjugation and Darzalex, incubated in CO2 incubator for 2 hours. After incubation the excess or unbound Daratumumab-MMAE was removed, fresh media was added and incubated for 4 days in 5% CO2 at 37° C. At the end of incubation, alamar blue dye (invitrogen, DAL-1100) was added to the cells and incubated for 5 hours in CO2 incubator.

| Substance | effect on tumor progression / tumor burden [1] | in vitro activity (cytotoxicity, viable cells by alamar blue fluorescence) ([2]; Daudi cells expressing CD38, 2 hours treatment, unbound removed, 4 days incubation, no effector cells) | relative in vitro activity compared with Darzalex ([2]; Daudi cells, FIG. 3) | in vitro activity (cytotoxicity, viable cells by alamar blue fluorescence) [2] |
| --- | --- | --- | --- | --- |
| daratumumab-MMAE conjugate: daratumumab as an antibody, mc-vc-PABC as a linker and MMAE as a toxin or drug or payload; average DAR about 4 | able to regress the tumor burden | shows good in vitro activity without the requirement of effector cell mediated killing | better than Darzalex |  |
| Daratumumab: immunoglobulin G1 kappa (IgG1κ) human monoclonal antibody against CD38 antigen [reference compound] | able to delay the tumor progression in comparison to placebo control group but not able to regress the tumor burden |  |  | does not show activity without effector functions |
